Measurements taken from ChEMBL document CHEMBL1201862, “PubChem BioAssay data set” (2004).
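In this assay, cells in 96-well plates receive the compound at five concentrations for 48 hours. Endpoints are linearly interpolated between the surrounding concentrations. At the GI50, growth is halved.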 Active and inactive are the calls of the source. Rule as the data show it: active = GI50 up to about 1.1 µM and inactive = higher.

Tests used:
Assay in all cases: inhibition of tumour cell growth, NCI panel, 48 h
[1] = test system: SNB-19
[2] = test system: RPMI-8226
[3] = test system: SF-295
[4] = test system: UACC-257
[5] = test system: UO-31
[6] = test system: NCI-H23
[7] = test system: NCI-H522
[8] = test system: DU-145
[9] = test system: Hs-578T
[10] = test system: COLO 205
[11] = test system: NCI-H226
[12] = test system: OVCAR-5
[13] = test system: Malme-3M
[14] = test system: NCI/ADR-RES
[15] = test system: SK-MEL-28
[16] = test system: U-251
[17] = test system: SK-OV-3
[18] = test system: M14
[19] = test system: SNB-75
[20] = test system: SF-268
[21] = test system: HCT-116
[22] = test system: A498
[23] = test system: HL-60
[24] = test system: SK-MEL-2
[25] = test system: UACC-62
[26] = test system: CCRF-CEM
[27] = test system: OVCAR-4
[28] = test system: CAKI-1
[29] = test system: KM12
[30] = test system: A549
[31] = test system: RXF 393
[32] = test system: PC-3
[33] = test system: TK-10
[34] = test system: HT-29
[35] = test system: HCT-15
[36] = test system: ACHN
[37] = test system: SN12C
[38] = test system: MDA-MB-435
[39] = test system: HOP-92
[40] = test system: MCF7
[41] = test system: T47D
[42] = test system: 786-0
[43] = test system: BT-549
[44] = test system: SK-MEL-5
[45] = test system: SF-539
[46] = test system: NCI-H460
[47] = test system: HOP-62
[48] = test system: LOX IMVI
[49] = test system: MDA-MB-231
[50] = test system: MOLT-4
[51] = test system: K562
[52] = test system: SW-620
[53] = test system: OVCAR-8
[54] = test system: EKVX
[55] = test system: OVCAR-3
[56] = test system: IGROV-1
[57] = test system: MDA-N
[58] = test system: SR
[59] = test system: HCC 2998

COc1cc2c(/C=C3/C(=O)Nc4ccc(O)cc43)c(Cl)[nH]c2cc1C
GI50 [1]: 0.146 µM (active) | GI50 [2]: 0.275 µM (active) | GI50 [3]: 0.0984 µM (active) | GI50 [4]: 0.615 µM (active) | GI50 [5]: 0.728 µM (active) | GI50 [6]: 0.23 µM (active) | GI50 [7]: 0.146 µM (active) | GI50 [8]: 0.245 µM (active) | GI50 [9]: 0.0989 µM (active) | GI50 [10]: 0.192 µM (active) | GI50 [11]: 0.258 µM (active) | GI50 [12]: 0.618 µM (active) | GI50 [13]: 0.0398 µM (active) | GI50 [14]: 0.249 µM (active) | GI50 [15]: 0.0149 µM (active) | GI50 [16]: 0.0521 µM (active) | GI50 [17]: 0.0627 µM (active) | GI50 [18]: 0.0897 µM (active) | GI50 [19]: 0.143 µM (active) | GI50 [20]: 0.927 µM (active) | GI50 [21]: 0.0897 µM (active) | GI50 [22]: 11.4 µM (inactive) | GI50 [23]: 0.0343 µM (active) | GI50 [24]: 0.883 µM (active) | GI50 [25]: 0.0499 µM (active) | GI50 [26]: 0.0462 µM (active) | GI50 [27]: 0.562 µM (active) | GI50 [28]: 0.0893 µM (active) | GI50 [29]: 0.045 µM (active) | GI50 [30]: 0.397 µM (active) | GI50 [31]: 0.176 µM (active) | GI50 [32]: 0.359 µM (active) | GI50 [33]: 0.398 µM (active) | GI50 [34]: 0.149 µM (active) | GI50 [35]: 0.107 µM | GI50 [36]: 0.108 µM (active) | GI50 [37]: 0.197 µM (active) | GI50 [38]: < 0.0137 µM (active) | GI50 [39]: 15.9 µM (inactive) | GI50 [40]: 0.0748 µM (active) | GI50 [41]: 0.0462 µM (active) | GI50 [42]: 0.173 µM (active) | GI50 [43]: 0.139 µM (active) | GI50 [44]: 0.0822 µM (active) | GI50 [45]: 0.0447 µM (active) | GI50 [46]: 0.454 µM (active) | GI50 [47]: 0.127 µM (active) | GI50 [48]: 0.0775 µM (active) | GI50 [49]: 0.283 µM (active) | GI50 [50]: 0.039 µM (active) | GI50 [51]: 0.0382 µM (active) | GI50 [52]: 0.0955 µM (active) | GI50 [53]: 0.281 µM (active) | GI50 [54]: 0.679 µM (active) | GI50 [55]: 0.026 µM (active) | GI50 [56]: 0.441 µM (active)

Cc1cc(C)c2c(c1)CC1(Cc3c(C)cc(C)cc3C1=O)C2=O (centres undefined)
GI50 [1]: > 100 µM (inactive) | GI50 [2]: > 100 µM (inactive) | GI50 [3]: > 100 µM (inactive) | GI50 [4]: > 100 µM (inactive) | GI50 [5]: > 100 µM (inactive) | GI50 [7]: > 100 µM (inactive) | GI50 [8]: > 100 µM (inactive) | GI50 [9]: > 100 µM (inactive) | GI50 [10]: > 100 µM (inactive) | GI50 [11]: > 100 µM (inactive) | GI50 [12]: > 100 µM (inactive) | GI50 [13]: 92.9 µM (inactive) | GI50 [14]: > 100 µM (inactive) | GI50 [15]: > 100 µM (inactive) | GI50 [16]: > 100 µM (inactive) | GI50 [18]: > 100 µM (inactive) | GI50 [19]: > 100 µM (inactive) | GI50 [20]: > 100 µM (inactive) | GI50 [22]: > 100 µM (inactive) | GI50 [23]: > 100 µM (inactive) | GI50 [24]: > 100 µM (inactive) | GI50 [25]: > 100 µM (inactive) | GI50 [26]: > 100 µM (inactive) | GI50 [27]: 46.3 µM (inactive) | GI50 [28]: > 100 µM (inactive) | GI50 [29]: > 100 µM (inactive) | GI50 [30]: 98.6 µM (inactive) | GI50 [31]: > 100 µM (inactive) | GI50 [32]: > 100 µM (inactive) | GI50 [33]: > 100 µM (inactive) | GI50 [35]: > 100 µM | GI50 [36]: > 100 µM (inactive) | GI50 [37]: > 100 µM (inactive) | GI50 [38]: > 100 µM (inactive) | GI50 [39]: > 100 µM (inactive) | GI50 [40]: > 100 µM (inactive) | GI50 [57]: > 100 µM (inactive) | GI50 [42]: > 100 µM (inactive) | GI50 [58]: > 100 µM (inactive) | GI50 [43]: > 100 µM (inactive) | GI50 [44]: > 100 µM (inactive) | GI50 [45]: 35.8 µM (inactive) | GI50 [46]: > 100 µM (inactive) | GI50 [48]: > 100 µM (inactive) | GI50 [49]: > 100 µM (inactive) | GI50 [50]: > 100 µM (inactive) | GI50 [59]: > 100 µM (inactive) | GI50 [51]: > 100 µM (inactive) | GI50 [52]: > 100 µM (inactive) | GI50 [53]: > 100 µM (inactive) | GI50 [54]: > 100 µM (inactive) | GI50 [55]: > 100 µM (inactive) | GI50 [56]: 84.5 µM (inactive)

CSc1cc(Cl)c(C)cc1S(=O)(=O)NC(=O)NNc1ccc(C)cc1
GI50 [1]: > 100 µM (inactive) | GI50 [3]: > 100 µM (inactive) | GI50 [7]: > 100 µM (inactive) | GI50 [8]: 48.9 µM (inactive) | GI50 [9]: > 100 µM (inactive) | GI50 [10]: > 100 µM (inactive) | GI50 [11]: > 100 µM (inactive) | GI50 [12]: > 100 µM (inactive) | GI50 [13]: > 100 µM (inactive) | GI50 [14]: 64.3 µM (inactive) | GI50 [15]: > 100 µM (inactive) | GI50 [16]: > 100 µM (inactive) | GI50 [17]: 68.9 µM (inactive) | GI50 [18]: > 100 µM (inactive) | GI50 [19]: 8.26 µM (inactive) | GI50 [20]: > 100 µM (inactive) | GI50 [21]: > 100 µM (inactive) | GI50 [22]: > 100 µM (inactive) | GI50 [24]: 93.3 µM (inactive) | GI50 [26]: > 100 µM (inactive) | GI50 [27]: > 100 µM (inactive) | GI50 [28]: 82 µM (inactive) | GI50 [29]: 78.3 µM (inactive) | GI50 [30]: > 100 µM (inactive) | GI50 [31]: > 100 µM (inactive) | GI50 [32]: 43.5 µM (inactive) | GI50 [34]: > 100 µM (inactive) | GI50 [35]: > 100 µM | GI50 [36]: 30.7 µM (inactive) | GI50 [37]: > 100 µM (inactive) | GI50 [38]: > 100 µM (inactive) | GI50 [40]: > 100 µM (inactive) | GI50 [41]: 61.9 µM (inactive) | GI50 [57]: > 100 µM (inactive) | GI50 [42]: > 100 µM (inactive) | GI50 [58]: 40.2 µM (inactive) | GI50 [44]: > 100 µM (inactive) | GI50 [45]: > 100 µM (inactive) | GI50 [46]: > 100 µM (inactive) | GI50 [47]: > 100 µM (inactive) | GI50 [48]: > 100 µM (inactive) | GI50 [49]: > 100 µM (inactive) | GI50 [50]: 43 µM (inactive) | GI50 [59]: 22.2 µM (inactive) | GI50 [51]: > 100 µM (inactive) | GI50 [52]: > 100 µM (inactive) | GI50 [53]: > 100 µM (inactive) | GI50 [54]: > 100 µM (inactive) | GI50 [55]: > 100 µM (inactive) | GI50 [56]: > 100 µM (inactive)
